The target of data set [1] is Aryl hydrocarbon receptor (Homo sapiens, UniProt P35869). The data set can be described thus: Luminescence-based cell-based high throughput dose response assay for activators of the Aryl Hydrocarbon Receptor (AHR). [Related pubchem assays: 2796 (Primary screen (AHR activators in singlicate)), 2845 (Confirmation screen (AHR activators in triplicate)), 434939 (Counterscreen (PXR activators in triplicate)), 2804 (Summary (AHR activators))]. It is filed as ADME. (In general: A counterscreen serves to expose hits that act by an unwanted route or on another target.)

A further data set addresses Cytochrome P450 2C9 (Homo sapiens, UniProt P11712).
The target in another data set is Large T antigen (Simian virus 40, UniProt P03070). Type of data set: functional, Betapolyomavirus macacae.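 Note: Confirmatory-stage PubChem screen for compounds that inhibit SV40 T antigen.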
The target in the next data set is Cytochrome P450 3A4 (Homo sapiens, UniProt P08684).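 Note: CYP3A4 tested as one member of a cytochrome P450 panel screen.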
A further data set relates to H4. In words: Luminescence Cell-Based Dose Response HTS to Identify Activators of 5'UTR Stem-Loop Driven Prion Protein mRNA Translation in H4 Neuroglioblastoma Cells. [Related pubchem assays: 1829 (Project Summary), 1814 (Primary HTS)]. Type of data set: functional. The settings on record: Homo sapiens.
The next data set has as its target Estrogen receptor beta (Homo sapiens, UniProt Q92731). The data set can be described thus: blockers of SRC-3 recruitment to ERβ – biochemical, ELISA, streptavidin-HRP readout, orthogonal assay, confirmation (AID 1060).
Data set [2] in a line: Luminescence Cell-Based Dose Response HTS to Identify Activators of Luciferase Translation or Activity in H4 […] Cells. [Related pubchem assays: 1829 (Project Summary), 1814 (Primary HTS)]. It is filed as functional.
Data set [3] in a line: Luminescence Cell-Based Dose Confirmation HTS to Identify Activators of 5'UTR Stem-Loop Driven Alpha-Synuclein mRNA Translation in H4 Neuroglioblastoma Cells. [Related pubchem assays: 1829 (Project Summary), 1814 (Primary HTS)]. It is filed as functional.
In another data set the target is 14-3-3 protein gamma (Homo sapiens, UniProt P61981). In words: modulators of 14-3-3 gamma client binding – dose response (AID 711). Type of data set: functional.
Data set [4] concerns the target T1, Calpain-2 catalytic subunit (Sus scrofa, UniProt P43367).
T1 sequence (P43367 whole entry): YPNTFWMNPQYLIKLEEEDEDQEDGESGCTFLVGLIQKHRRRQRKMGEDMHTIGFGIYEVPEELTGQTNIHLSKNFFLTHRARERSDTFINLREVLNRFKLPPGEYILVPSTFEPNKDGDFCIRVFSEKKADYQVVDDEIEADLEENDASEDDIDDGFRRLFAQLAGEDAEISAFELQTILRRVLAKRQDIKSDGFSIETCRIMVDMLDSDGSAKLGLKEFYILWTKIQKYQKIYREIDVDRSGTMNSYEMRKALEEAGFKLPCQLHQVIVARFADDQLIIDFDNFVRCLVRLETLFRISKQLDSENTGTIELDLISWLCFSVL
In words: m-calpain protease blockers, concentration series – biochemical, fluorogenic peptide substrate, dose response (AID 1420). It is filed as functional.

The target in the next data set is T2, Estrogen receptor (Homo sapiens, UniProt P03372).
T2 sequence (P03372 whole entry): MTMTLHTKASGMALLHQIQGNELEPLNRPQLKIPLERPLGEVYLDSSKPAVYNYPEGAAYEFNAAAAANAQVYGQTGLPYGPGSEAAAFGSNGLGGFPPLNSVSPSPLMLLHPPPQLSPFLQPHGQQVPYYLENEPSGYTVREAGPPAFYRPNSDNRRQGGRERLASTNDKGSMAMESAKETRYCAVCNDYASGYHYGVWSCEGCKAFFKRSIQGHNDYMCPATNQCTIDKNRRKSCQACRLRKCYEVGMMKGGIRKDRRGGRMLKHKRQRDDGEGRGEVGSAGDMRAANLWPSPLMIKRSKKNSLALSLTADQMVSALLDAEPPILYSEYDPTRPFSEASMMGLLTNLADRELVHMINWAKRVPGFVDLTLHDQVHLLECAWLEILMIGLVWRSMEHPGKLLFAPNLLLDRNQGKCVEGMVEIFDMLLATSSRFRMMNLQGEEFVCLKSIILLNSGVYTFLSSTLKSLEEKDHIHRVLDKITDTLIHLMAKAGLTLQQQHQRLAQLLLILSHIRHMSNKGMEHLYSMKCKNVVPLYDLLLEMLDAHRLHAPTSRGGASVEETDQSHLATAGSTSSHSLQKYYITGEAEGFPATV
The data set can be described thus: ERα coactivator recruitment enhancers – biochemical, TR-FRET, ERα LBD, dose response (AID 737). (In general: Time-resolved FRET reads energy transfer from a long-lived donor to a nearby acceptor.)

A further data set addresses Bcl-2-like protein 1 (Homo sapiens, UniProt Q07817). The data set can be described thus: blockers of BCLXL peptide binding – biochemical, fluorescence polarization, 1536-well, selectivity assay for MCL1 inhibitor project, dose response (AID 2218). A general note: Fluorescence polarisation rises when a labelled molecule tumbles more slowly, as on binding a larger partner.

The target in data set [5] is Induced myeloid leukemia cell differentiation protein Mcl-1 (Homo sapiens, UniProt Q07820). The data set can be described thus: blockers of MCL1 binding to BIM peptide – biochemical, fluorescence polarization, BIM-BH3 peptide, 1536-well, dose response (AID 2217).
The next data set deals with INS1. The data set can be described thus: INS-1E survival protection against cytokine death – cell-based, luminescence, retest, dose response (AID 449756).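 Note: cell death triggered by IL-1 beta plus TNF-alpha plus IFN-gamma mixture; protective hits raise ATP signal compared with cytokine alone wells.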 Type of data set: functional. The settings on record: Rattus norvegicus.
For another data set, the target named is Melanocortin receptor 4 (Homo sapiens, UniProt P32245). Type of data set: functional, cell-based.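 Note: Cell-based assay with luminescence read-out, confirmatory dose-response testing for agonist activity of biased ligands at MC4R; human U2OS cells with tagged receptor and beta-arrestin; potency of agonists that increase receptor coupling to beta-arrestin.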
Data set [6] can be described thus: NIH3T3 cell viability loss – ATP luminescence, mouse fibroblasts, counter-screen, dose response (AID 2010).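 Note: cells exposed to compound for about 90 hours before reading.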 It is filed as functional, cell-based.
Data set [7] can be described thus: Trypanosoma cruzi growth suppression in host cells – NIH3T3 host cells, beta-gal luminescence, confirmation (AID 2044).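 Note: intracellular parasites grown in NIH/3T3 mouse fibroblasts as host cells; luminescent beta-galactosidase reporter signal from transgenic T. cruzi replicating inside host cells; inhibitors lower the luminescence signal.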 It is filed as functional, cell-based.
The target in a further data set is NADPH oxidase 1 (Homo sapiens, UniProt Q9Y5S8). Type of data set: functional, cell-based.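 Note: Cell-based assay with luminescence read-out, IC50 derived from inhibitor dose-response curves; intracellular ROS from endogenous NOX1 in intact HT29 colon cancer cells; potency of inhibitors that lower the ROS luminescence signal.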
Data set [8] can be described thus: Luminescence Cell-Based Dose Retest to Confirm Inhibitors of Cancer Stem Cells. [Related pubchem assays (depositor defined):AID2717, AID2721]. Type of data set: functional. The settings on record: Homo sapiens.
The next data set has as its system Vero. The data set can be described thus: mammalian cell viability reduction – secondary assay, cytotoxicity control for West Nile virus antiviral project, dose response (AID 1650). It is filed as functional. The following applies: Chlorocebus sabaeus.
For data set [9], the target named is T3, RNA-binding protein pos-1 (Caenorhabditis elegans, UniProt G5EF15).
T3 sequence (G5EF15 whole entry): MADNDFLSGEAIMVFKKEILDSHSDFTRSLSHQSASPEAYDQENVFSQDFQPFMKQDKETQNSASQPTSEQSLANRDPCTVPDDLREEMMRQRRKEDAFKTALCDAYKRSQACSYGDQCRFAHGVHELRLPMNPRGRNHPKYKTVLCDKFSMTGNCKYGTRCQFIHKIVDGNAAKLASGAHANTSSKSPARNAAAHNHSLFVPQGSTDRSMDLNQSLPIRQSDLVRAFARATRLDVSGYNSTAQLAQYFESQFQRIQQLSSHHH
The data set can be described thus: disruptors of C. elegans POS-1 RNA interaction – biochemical, fluorescence polarization, dose response (AID 1964).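 Note: purified POS-1 fused to maltose binding protein made in E. coli; potency of compounds blocking POS-1 binding to fluorescent RNA.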

Data set [10] deals with T4, Long-chain-fatty-acid--AMP ligase FadD28 (Mycobacterium tuberculosis, UniProt P9WQ59).
T4 sequence (P9WQ59 whole entry): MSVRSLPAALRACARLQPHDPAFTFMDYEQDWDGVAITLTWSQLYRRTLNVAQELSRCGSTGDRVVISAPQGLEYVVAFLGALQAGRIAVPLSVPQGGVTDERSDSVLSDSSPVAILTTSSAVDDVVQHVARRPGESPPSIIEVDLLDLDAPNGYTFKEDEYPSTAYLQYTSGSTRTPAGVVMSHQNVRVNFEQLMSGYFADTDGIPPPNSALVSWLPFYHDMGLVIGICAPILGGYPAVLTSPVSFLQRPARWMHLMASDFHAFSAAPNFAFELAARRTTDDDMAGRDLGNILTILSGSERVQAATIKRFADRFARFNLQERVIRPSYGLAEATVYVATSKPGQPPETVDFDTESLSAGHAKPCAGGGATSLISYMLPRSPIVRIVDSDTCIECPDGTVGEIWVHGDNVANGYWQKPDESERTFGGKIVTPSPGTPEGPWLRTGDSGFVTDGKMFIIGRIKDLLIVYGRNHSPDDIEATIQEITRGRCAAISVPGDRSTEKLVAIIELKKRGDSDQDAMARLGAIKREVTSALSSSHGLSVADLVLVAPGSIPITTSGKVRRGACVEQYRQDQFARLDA
The data set can be described thus: Fluorescence polarization aasay to screen for inhibitors that compete for the binding of FadD28 to a bisubstrate Measured in Biochemical System Using Plate Reader - 2147-01_Inhibitor_Dose_CherryPick_Activity. Type of data set: functional, Mycobacterium tuberculosis H37Rv.

Data set [11] concerns the target T5, Zinc finger protein mex-5 (Caenorhabditis elegans, UniProt Q9XUB2).
T5 sequence (Q9XUB2 whole entry): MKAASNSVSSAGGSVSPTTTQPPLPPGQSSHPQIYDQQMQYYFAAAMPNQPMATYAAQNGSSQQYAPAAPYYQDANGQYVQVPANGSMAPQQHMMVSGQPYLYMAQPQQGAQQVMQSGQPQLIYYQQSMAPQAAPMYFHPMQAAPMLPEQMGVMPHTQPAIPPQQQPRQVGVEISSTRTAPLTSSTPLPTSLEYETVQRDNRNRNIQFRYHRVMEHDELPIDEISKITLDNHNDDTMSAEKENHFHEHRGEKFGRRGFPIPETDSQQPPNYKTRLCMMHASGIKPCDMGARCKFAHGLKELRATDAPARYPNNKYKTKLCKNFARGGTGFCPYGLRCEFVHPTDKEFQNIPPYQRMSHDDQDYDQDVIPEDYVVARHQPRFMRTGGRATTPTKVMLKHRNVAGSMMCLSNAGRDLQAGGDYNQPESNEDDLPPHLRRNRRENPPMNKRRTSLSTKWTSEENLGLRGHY
The data set can be described thus: potency of MEX-5 RNA-binding blockers – biochemical, C. elegans, fluorescence polarization, dose response (AID 1960).

Data set [12] addresses Heat shock protein HSP 90-alpha (Homo sapiens, UniProt P07900). Type of data set: functional, organism-based.

SMILES strings stand for the structures. Calls of active or inactive are those of the source.

Induced myeloid leukemia cell differentiation protein Mcl-1, sequence (Q07820 whole entry): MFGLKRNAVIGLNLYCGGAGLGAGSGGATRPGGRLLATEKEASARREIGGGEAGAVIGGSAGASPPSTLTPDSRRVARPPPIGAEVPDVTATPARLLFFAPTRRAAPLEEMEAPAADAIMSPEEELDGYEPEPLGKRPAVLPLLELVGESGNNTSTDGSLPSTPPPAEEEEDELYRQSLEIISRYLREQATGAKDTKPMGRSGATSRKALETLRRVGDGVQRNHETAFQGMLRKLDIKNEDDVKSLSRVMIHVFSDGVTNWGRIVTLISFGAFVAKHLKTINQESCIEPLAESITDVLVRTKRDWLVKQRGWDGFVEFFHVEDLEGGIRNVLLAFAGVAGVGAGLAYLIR
Bcl-2-like protein 1, sequence (Q07817 whole entry): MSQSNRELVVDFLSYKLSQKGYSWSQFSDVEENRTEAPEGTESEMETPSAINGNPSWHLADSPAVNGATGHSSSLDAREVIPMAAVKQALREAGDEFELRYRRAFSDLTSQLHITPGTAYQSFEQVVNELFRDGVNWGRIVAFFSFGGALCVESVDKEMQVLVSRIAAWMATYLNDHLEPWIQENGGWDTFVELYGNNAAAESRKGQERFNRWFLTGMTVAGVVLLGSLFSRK
14-3-3 protein gamma, sequence (P61981 whole entry): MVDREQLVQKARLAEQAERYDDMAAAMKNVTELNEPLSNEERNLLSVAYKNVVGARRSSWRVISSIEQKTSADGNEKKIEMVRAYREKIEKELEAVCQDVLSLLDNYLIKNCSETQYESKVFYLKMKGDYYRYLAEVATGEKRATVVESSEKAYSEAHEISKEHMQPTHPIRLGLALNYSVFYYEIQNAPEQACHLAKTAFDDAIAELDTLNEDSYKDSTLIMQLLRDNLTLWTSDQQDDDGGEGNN
Aryl hydrocarbon receptor, sequence (P35869 whole entry): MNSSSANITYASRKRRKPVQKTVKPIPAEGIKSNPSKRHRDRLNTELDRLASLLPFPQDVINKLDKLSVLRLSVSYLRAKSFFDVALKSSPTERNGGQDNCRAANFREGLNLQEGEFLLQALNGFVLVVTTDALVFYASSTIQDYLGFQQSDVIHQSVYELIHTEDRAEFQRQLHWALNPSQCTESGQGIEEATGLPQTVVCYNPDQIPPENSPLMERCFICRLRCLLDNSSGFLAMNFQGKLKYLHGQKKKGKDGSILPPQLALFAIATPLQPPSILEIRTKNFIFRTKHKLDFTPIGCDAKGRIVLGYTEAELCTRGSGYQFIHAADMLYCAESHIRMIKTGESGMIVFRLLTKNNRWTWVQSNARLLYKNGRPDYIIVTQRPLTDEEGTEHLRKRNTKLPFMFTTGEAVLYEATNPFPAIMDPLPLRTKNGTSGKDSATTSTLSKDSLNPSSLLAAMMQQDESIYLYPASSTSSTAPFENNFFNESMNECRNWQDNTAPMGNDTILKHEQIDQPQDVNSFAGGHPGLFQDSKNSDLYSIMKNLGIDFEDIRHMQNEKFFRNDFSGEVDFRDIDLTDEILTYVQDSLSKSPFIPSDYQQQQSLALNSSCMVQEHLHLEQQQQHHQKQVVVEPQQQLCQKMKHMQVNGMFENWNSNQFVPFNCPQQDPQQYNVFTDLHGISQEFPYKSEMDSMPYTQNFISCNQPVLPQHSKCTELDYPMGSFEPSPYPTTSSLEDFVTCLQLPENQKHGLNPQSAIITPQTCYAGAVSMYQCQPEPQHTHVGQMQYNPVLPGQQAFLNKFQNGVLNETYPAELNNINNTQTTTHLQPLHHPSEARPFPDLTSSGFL
NADPH oxidase 1, sequence (Q9Y5S8 whole entry): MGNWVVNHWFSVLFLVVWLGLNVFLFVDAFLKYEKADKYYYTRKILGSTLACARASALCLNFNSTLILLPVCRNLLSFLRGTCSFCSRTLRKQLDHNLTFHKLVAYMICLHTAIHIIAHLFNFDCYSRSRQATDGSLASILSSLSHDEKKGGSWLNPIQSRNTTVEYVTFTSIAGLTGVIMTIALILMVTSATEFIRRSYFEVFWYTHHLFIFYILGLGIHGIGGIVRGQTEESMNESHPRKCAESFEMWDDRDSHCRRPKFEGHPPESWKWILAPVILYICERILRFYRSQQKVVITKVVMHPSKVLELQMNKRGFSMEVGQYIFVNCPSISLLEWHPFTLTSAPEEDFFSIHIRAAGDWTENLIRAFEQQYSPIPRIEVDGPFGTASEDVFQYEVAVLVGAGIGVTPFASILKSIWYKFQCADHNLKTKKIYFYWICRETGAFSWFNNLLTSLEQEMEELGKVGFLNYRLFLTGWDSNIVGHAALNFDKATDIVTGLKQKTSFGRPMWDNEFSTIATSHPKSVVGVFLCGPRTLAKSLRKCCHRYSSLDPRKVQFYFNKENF
Cytochrome P450 3A4, sequence (P08684 whole entry): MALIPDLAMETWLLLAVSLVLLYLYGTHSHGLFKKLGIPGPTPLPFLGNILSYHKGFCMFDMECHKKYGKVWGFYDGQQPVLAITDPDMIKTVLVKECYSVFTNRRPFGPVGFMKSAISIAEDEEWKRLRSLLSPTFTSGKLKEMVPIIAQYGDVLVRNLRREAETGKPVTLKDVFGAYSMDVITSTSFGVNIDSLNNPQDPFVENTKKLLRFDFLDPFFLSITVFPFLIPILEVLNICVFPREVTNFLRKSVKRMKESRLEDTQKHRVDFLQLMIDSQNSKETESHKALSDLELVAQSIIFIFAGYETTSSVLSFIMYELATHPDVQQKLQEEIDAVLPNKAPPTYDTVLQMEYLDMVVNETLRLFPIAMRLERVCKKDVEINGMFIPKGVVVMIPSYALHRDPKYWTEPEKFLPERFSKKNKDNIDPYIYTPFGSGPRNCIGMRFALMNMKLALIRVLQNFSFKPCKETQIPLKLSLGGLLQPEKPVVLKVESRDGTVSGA
Melanocortin receptor 4, sequence (P32245 whole entry): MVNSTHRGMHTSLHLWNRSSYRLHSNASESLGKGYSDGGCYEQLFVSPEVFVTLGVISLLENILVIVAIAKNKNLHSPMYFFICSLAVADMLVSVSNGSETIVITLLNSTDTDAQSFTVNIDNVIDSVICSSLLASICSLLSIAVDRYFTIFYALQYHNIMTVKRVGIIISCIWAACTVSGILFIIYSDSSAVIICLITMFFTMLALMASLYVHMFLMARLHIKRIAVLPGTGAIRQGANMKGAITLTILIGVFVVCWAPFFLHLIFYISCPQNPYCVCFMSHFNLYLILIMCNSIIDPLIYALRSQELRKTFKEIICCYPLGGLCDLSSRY
Large T antigen, sequence (P03070 whole entry): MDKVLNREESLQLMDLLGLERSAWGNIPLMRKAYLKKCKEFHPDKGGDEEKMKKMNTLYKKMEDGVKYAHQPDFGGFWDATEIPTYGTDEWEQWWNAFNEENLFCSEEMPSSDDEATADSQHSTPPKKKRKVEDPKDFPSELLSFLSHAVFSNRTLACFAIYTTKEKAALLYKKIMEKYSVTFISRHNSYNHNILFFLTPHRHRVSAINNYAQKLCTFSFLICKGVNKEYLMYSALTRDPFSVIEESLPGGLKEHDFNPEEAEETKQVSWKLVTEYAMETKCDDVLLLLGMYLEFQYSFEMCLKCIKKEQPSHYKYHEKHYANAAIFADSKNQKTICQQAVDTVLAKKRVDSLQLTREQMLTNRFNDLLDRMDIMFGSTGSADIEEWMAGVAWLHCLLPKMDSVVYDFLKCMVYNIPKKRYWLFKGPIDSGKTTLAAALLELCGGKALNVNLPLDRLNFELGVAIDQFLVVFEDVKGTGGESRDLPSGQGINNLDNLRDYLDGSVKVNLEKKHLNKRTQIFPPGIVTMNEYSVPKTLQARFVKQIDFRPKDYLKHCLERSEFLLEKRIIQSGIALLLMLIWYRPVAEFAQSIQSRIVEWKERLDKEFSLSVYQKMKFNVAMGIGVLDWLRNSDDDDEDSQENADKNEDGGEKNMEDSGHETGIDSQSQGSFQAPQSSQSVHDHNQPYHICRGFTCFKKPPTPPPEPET
Estrogen receptor beta, sequence (Q92731 whole entry): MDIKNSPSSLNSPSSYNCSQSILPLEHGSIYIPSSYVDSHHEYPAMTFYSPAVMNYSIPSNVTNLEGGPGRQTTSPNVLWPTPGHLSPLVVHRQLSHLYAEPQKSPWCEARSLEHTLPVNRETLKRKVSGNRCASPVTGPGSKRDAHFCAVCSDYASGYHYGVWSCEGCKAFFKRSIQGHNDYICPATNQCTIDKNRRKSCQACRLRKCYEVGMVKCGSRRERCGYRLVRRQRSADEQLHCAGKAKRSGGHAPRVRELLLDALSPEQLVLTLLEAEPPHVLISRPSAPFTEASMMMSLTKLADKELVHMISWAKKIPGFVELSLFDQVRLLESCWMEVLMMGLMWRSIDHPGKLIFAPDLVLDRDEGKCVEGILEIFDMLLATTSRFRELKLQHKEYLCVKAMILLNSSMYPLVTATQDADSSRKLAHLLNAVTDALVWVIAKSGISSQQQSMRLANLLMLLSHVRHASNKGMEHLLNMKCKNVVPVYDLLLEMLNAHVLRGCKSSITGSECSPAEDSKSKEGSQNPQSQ
Cytochrome P450 2C9, sequence (P11712 whole entry): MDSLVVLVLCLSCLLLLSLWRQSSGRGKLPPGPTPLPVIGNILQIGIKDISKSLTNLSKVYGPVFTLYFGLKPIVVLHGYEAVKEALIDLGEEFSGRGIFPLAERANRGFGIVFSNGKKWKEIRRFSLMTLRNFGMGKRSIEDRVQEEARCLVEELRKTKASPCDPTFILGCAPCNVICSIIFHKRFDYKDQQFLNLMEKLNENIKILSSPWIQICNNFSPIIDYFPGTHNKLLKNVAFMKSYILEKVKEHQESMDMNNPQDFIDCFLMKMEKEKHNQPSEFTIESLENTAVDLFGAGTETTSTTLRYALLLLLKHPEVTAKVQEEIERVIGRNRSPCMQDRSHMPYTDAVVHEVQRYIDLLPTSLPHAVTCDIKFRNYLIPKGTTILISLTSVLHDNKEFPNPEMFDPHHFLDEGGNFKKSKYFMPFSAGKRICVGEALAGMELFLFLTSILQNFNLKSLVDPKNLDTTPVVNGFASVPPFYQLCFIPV

The term EC50 denotes the concentration that produces a half-maximal response. By AC50 is commonly meant the midpoint of the concentration-response curve, whichever way the signal moves. Consider `COc1ccccc1-c1nnc(NC(C)=O)s1`, for which the half-maximal effective concentration (EC50) in data set [1] is on record as 11 µM (not active). The half-maximal activity concentration (AC50) result on Cytochrome P450 2C9 was “inconclusive”.

The term IC50 denotes the concentration needed to halve the response being measured. On to `NC(=O)Cn1c(=O)n(Cc2ccco2)c(=O)c2c3c(sc21)CCCCC3`, for which the IC50 on Large T antigen was 33 µM (active); at Estrogen receptor beta it was < 0.023 µM (not active). The AC50 on Cytochrome P450 3A4 is 25.1 µM (inconclusive). Also, the concentration for a half-maximal effect (EC50) (with H4; in data set [2]; in [3]) was > 120 µM (not active) each time.

`COc1cc(/C=N/NC(=O)c2cccc(NC(=O)c3ccccc3)c2)ccc1O`: the 50% effective concentration (EC50) in data set [1] was 5.62 µM (active).

As for `COc1ccccc1-n1nnnc1SCc1cc2c(cc1Br)OCO2`, the IC50 is given as > 50 µM (not active) on 14-3-3 protein gamma and 1.36 µM (not active) in [4].

As for `CC1Cc2ccccc2N1C(=O)CSc1nnc(-c2ccc(S(=O)(=O)N3CCCC3)cc2)o1` (configuration not stated), at Estrogen receptor, the half-maximal effective concentration (EC50) was 7.79 µM (active).

Turning to `COc1cc(NC(=O)c2noc3c2CCC3)c(OC)cc1Cl`, the IC50 was > 109 µM (not active) at Bcl-2-like protein 1 and 11.1 µM (not active) in [5].

As to `Clc1ccc(C[n+]2c(-c3ccccc3)cc(-c3ccccc3)cc2-c2ccccc2)cc1.[O-][Cl+3]([O-])([O-])[O-]`, the EC50 in the data set “cells” was 0.173 µM (active); on Melanocortin receptor 4, > 89.2 µM (inactive); in data set [6], > 60 µM (not active); in [7] it was < 0.1 µM (active). For the same compound, the half-maximal activity concentration (AC50) in the data set with INS1 was 2.05 µM (active).

On to `CC(=O)Nc1ccc(/C=N/Nc2c(Cl)cc(Cl)cc2Cl)cc1`, for which the IC50 at NADPH oxidase 1 is given as > 17 µM (not active).

Consider `COc1ccc(-c2nc(-c3ccc(OC)c(OC)c3)[nH]c2-c2ccc(OC)cc2)cc1`, for which the 50% inhibitory concentration (IC50) against NADPH oxidase 1 is recorded as > 17 µM (not active).

By CC50 is commonly meant the concentration that lowers cell viability or growth by half. Turning to `Cc1ccc2nc(NC(=O)c3cccc(-c4cc5ccccc5oc4=O)c3)sc2c1`, the half-maximal activity concentration (AC50) in [8] was 1.71 µM (active). The half-maximal cytotoxic concentration (CC50) in the data set with Vero is > 100 µM (active). Also, the EC50 in [6] is > 60 µM (not active); in data set [7], 1.09 µM (active).

As to `COc1ccc(C2=CC3=C(Br)C(=O)C(C)(OC(=O)c4cccs4)C(=O)C3=CO2)cc1` (configuration not stated), the half-maximal inhibitory concentration (IC50) is > 109 µM (not active) at Bcl-2-like protein 1 and 16.8 µM (not active) in data set [5]. The results for the EC50 in data set [9] and in data set [11] were 32.8 µM (active) and 29.1 µM (active), respectively. Further, the AC50 was > 100 µM (inactive) in data set [10] and 2.35 µM (active) in data set [12].

On to `C/C(=N\O)C(=O)NCc1ccccn1`, for which the IC50 on 14-3-3 protein gamma is > 50 µM (not active).

The record behind these values is ChEMBL document CHEMBL1201862, “PubChem BioAssay data set” (2004).
